Experimental data: BindingDB's records for doi:10.1021/cc1000049 (Chemical Diversity Research Institute, 2010)
“And” between values parts separate entries of the source, which are not always exact repeats. Identical values can stand only once.

Biological target: 5-hydroxytryptamine receptor 6 (Homo sapiens, UniProt P50406)
Assay: Radioligand Binding Assay
Description: Radioligand binding assay using 5-HT6R.

Sequence of 5-hydroxytryptamine receptor 6 (P50406 whole entry): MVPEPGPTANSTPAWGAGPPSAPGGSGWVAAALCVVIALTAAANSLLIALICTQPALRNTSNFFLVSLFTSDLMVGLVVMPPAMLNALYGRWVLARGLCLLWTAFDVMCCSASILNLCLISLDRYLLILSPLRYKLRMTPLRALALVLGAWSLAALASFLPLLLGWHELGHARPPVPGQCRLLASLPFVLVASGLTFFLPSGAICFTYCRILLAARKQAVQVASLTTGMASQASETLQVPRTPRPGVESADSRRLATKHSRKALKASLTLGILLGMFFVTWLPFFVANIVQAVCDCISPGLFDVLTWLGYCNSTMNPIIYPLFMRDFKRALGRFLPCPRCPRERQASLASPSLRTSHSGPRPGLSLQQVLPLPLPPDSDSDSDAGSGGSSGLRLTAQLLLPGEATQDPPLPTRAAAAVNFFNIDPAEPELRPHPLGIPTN

| IC50 | Ki [nM] | SMILES |
| --- | --- | --- |
| 770 nM | – | CCc1ccccc1Nc1nc2c(S(=O)(=O)c3cc(C)ccc3C)nnn2c2ccccc12 [PSTQ Analog, 3{8,31}] |
| 606 nM | – | Cc1ccc(S(=O)(=O)c2nnn3c2nc(NCC(C)c2ccccc2)c2ccccc23)cc1 (stereo not drawn) [PSTQ Analog, 3{2,10}] |
| 779 nM | – | Cc1ccc(S(=O)(=O)c2nnn3c2nc(NCC2CCCO2)c2ccccc23)cc1C (stereo not drawn) [PSTQ Analog, 3{9,21}] |
| 1200 nM | – | Cc1ccc(S(=O)(=O)c2nnn3c2nc(N2CCN(c4ccccn4)CC2)c2ccccc23)cc1C [PSTQ Analog, 3{9,58}] |
| 971 nM | – | CCN(Cc1ccccc1)c1nc2c(S(=O)(=O)c3ccc(C)c(C)c3)nnn2c2ccccc12 [PSTQ Analog, 3{9,44}] |
| 740 nM | – | Cc1ccc(S(=O)(=O)c2nnn3c2nc(NC(C)c2ccccc2)c2ccccc23)cc1 (stereo not drawn) [PSTQ Analog, 3{2,20}] |
| 5740 nM | – | O=S(=O)(c1ccccc1)c1nnn2c1ncc1ccccc12 [PSTQ Analog, 8] |
| 1050 nM | – | CCSc1nc2c(S(=O)(=O)c3ccccc3)nnn2c2ccccc12 [PSTQ Analog, 9] |
| 1000 nM | – | Cc1cccc(Nc2nc3c(S(=O)(=O)c4c(C)cc(C)cc4C)nnn3c3ccccc23)c1 [PSTQ Analog, 3{10,32}] |
| 164 nM | – | CCN(Cc1ccccc1)c1nc2c(S(=O)(=O)c3ccccc3)nnn2c2ccccc12 [PSTQ Analog, 3{1,44}] |
| 59.5 nM | 27.6 | CC1CCC(Nc2nc3c(S(=O)(=O)c4ccccc4)nnn3c3ccccc23)CC1 (stereo not drawn) [PSTQ Analog, 3{1,28}] |
| 75.4 nM and 28.4 nM | 13.2 | O=S(=O)(c1ccccc1)c1nnn2c1nc(NCC1CCCO1)c1ccccc12 (stereo not drawn) [PSTQ Analog, 3{1,21}] |
| 1460 nM | – | Cc1cc(C)c(S(=O)(=O)c2nnn3c2nc(NCC2CCCO2)c2ccccc23)c(C)c1 (stereo not drawn) [PSTQ Analog, 3{10,21}] |
| 1800 nM | – | O=S(=O)(c1ccccc1)c1nnn2c1nc(NCC1CCCO1)c1cc(Cl)ccc12 (stereo not drawn) [PSTQ Analog, 3{12,21}] |
| 35.9 nM | 16.7 | CCC(C)Nc1nc2c(S(=O)(=O)c3cc(C)ccc3C)nnn2c2ccccc12 (stereo not drawn) [PSTQ Analog, 3{8,4}] |
| 670 nM | – | COc1cccc(Nc2nc3c(S(=O)(=O)c4c(C)cc(C)cc4C)nnn3c3ccccc23)c1 [PSTQ Analog, 3{10,33}] |
| 356 nM | – | Cc1ccc(S(=O)(=O)c2nnn3c2nc(NC(C)c2ccccc2)c2ccccc23)cc1C (stereo not drawn) [PSTQ Analog, 3{9,20}] |
| 6.17 nM | 2.86 | CC1CCCCC1Nc1nc2c(S(=O)(=O)c3ccccc3)nnn2c2ccccc12 (stereo not drawn) [PSTQ Analog, 3{1,27}] |
| 320 nM | – | Cc1ccc(S(=O)(=O)c2nnn3c2nc(NCc2ccccc2)c2ccccc23)cc1 [PSTQ Analog, 3{2,12}] |
| 964 nM | – | CCC(C)Nc1nc2c(S(=O)(=O)c3c(C)cc(C)cc3C)nnn2c2ccccc12 (stereo not drawn) [PSTQ Analog, 3{10,4}] |
| – | 7.65 | CN(Cc1ccccc1)c1nc2c(S(=O)(=O)c3ccccc3)nnn2c2ccccc12 [PSTQ Analog, 3{1,43}] |
| 602 nM | – | Cc1ccc(S(=O)(=O)c2nnn3c2nc(NCc2ccccc2C)c2ccccc23)cc1C [PSTQ Analog, 3{9,13}] |
| 128 nM | – | O=S(=O)(c1ccccc1)c1nnn2c1nc(NCc1ccccc1Cl)c1ccccc12 [PSTQ Analog, 3{1,13}] |

| IC50 | Ki [nM] | SMILES |
| --- | --- | --- |
| > 30 nM | – | CN(C)c1nc2c(S(=O)(=O)c3ccccc3)nnn2c2ccccc12 [PSTQ Analog, 3{1,40}] |
| 2180 nM | – | Cc1cc(C)c(S(=O)(=O)c2nnn3c2nc(NC(C)C)c2ccccc23)c(C)c1 [PSTQ Analog, 3{10,3}] |
| 42.1 nM | 19.5 | CC1CCCCN1c1nc2c(S(=O)(=O)c3ccccc3)nnn2c2ccccc12 (stereo not drawn) [PSTQ Analog, 3{1,49}] |
| 1480 nM | – | Cc1ccc(S(=O)(=O)c2nnn3c2nc(NCC2CCCO2)c2ccccc23)cc1 (stereo not drawn) [PSTQ Analog, 3{2,21}] |
| 2010 nM | – | Cc1ccc(S(=O)(=O)c2nnn3c2nc(NCCc2ccccc2)c2ccccc23)cc1C [PSTQ Analog, 3{9,9}] |
| 381 nM | – | O=S(=O)(c1ccccc1)c1nnn2c1nc(NCc1ccccc1)c1ccccc12 [PSTQ Analog, 3{1,12}] |
| 10.8 nM | 5.01 | O=S(=O)(c1ccccc1)c1nnn2c1nc(NC1CCCCC1)c1ccccc12 [PSTQ Analog, 3{1,26}] |
| – | 3.54 | O=S(=O)(c1ccccc1)c1nnn2c1nc(NCc1ccco1)c1ccccc12 [PSTQ Analog, 3{1,22}] |
| 572 nM | – | CCc1ccc(S(=O)(=O)c2nnn3c2nc(NC2CCCCC2C)c2ccccc23)cc1 (stereo not drawn) [PSTQ Analog, 3{3,27}] |
| 295 nM | – | CCc1ccccc1Nc1nc2c(S(=O)(=O)c3ccc(C)c(C)c3)nnn2c2ccccc12 [PSTQ Analog, 3{9,31}] |
| – | 12.9 | O=S(=O)(c1ccccc1)c1nnn2c1nc(NC1CCCC1)c1ccccc12 [PSTQ Analog, 3{1,25}] |
| 1310 nM | – | Cc1ccc(S(=O)(=O)c2nnn3c2nc(N2CCCCCC2)c2ccccc23)cc1C [PSTQ Analog, 3{9,53}] |
| 628 nM | – | CC(Nc1nc2c(S(=O)(=O)c3ccc(Cl)cc3)nnn2c2ccccc12)c1ccccc1 (stereo not drawn) [PSTQ Analog, 3{6,20}] |
| 704 nM | – | Cc1cccc(Nc2nc3c(S(=O)(=O)c4ccc(Br)cc4)nnn3c3ccccc23)c1C [PSTQ Analog, 3{7,37}] |
| 107 nM | 49.5 | CC(C)Nc1nc2c(S(=O)(=O)c3ccccc3)nnn2c2ccccc12 [PSTQ Analog, 3{1,3}] |
| 983 nM | – | O=S(=O)(c1ccccc1)c1nnn2c1nc(NCc1cccnc1)c1ccccc12 [PSTQ Analog, 3{1,23}] |
| 1430 nM | – | CCc1ccccc1Nc1nc2c(S(=O)(=O)c3ccc(Br)cc3)nnn2c2ccccc12 [PSTQ Analog, 3{7,31}] |
| > 300 nM | – | CNc1nc2c(S(=O)(=O)c3ccccc3)nnn2c2ccccc12 [PSTQ Analog, 3{1,2}] |
| > 30 nM | – | CN(C)CCN(C)c1nc2c(S(=O)(=O)c3ccccc3)nnn2c2ccccc12 [PSTQ Analog, 3{1,42}] |
| 15.2 nM | 7.04 | CCC(C)Nc1nc2c(S(=O)(=O)c3ccccc3)nnn2c2ccccc12 (stereo not drawn) [PSTQ Analog, 3{1,4}] |
| 528 nM | – | Cc1ccc(S(=O)(=O)c2nnn3c2nc(NCc2ccccc2Cl)c2ccccc23)cc1 [PSTQ Analog, 3{2,13}] |
| 1370 nM | – | COCCOc1nc2c(S(=O)(=O)c3ccccc3)nnn2c2ccccc12 [PSTQ Analog, 10] |
